Data set [1] deals with T1, SbnA (Staphylococcus aureus, UniProt A6QDA0).
T1 construct: synthetic codon-optimised gene in pSH21p::TrxA, His-Trx tag with TEV site, tag cleaved and removed; expressed in E. coli BL21 ArcticExpress (DE3)
Description: PNP-coupled continuous assay (MESG, […] nm), global fit. The data set is classed as biochemical.

For data set [2], the target named is T1, SbnA. Description: PNP-coupled continuous assay (MESG, […] nm). The data set is classed as biochemical.
For data set [3], the target named is T1, SbnA. Description: PNP-coupled continuous assay, global fit to ping-pong with substrate inhibition. The class given is biochemical. The note with it: substrate inhibition (unproductive binding to internal aldimine); 0.035-0.720 mM L-OPS; 50 mM HEPES pH 7.8, 1 mM TCEP, 25 °C.
Data set [4] concerns N[C@@H](COP(=O)(O)O)C(=O)O. Description: purified protein. The note with it: co-substrate L-Glu 0.1-150 mM, 50 mM HEPES pH 7.8, 1 mM TCEP, 25 °C.

What is called IC50 is the concentration at which inhibition is half-maximal. A lower IC50 goes with inhibition by little substance. The term Km denotes the substrate concentration at which the rate is half of its maximum. A word on the kcat/Km: it is the turnover number divided by the Michaelis constant.

T1 sequence (A6QDA0 whole entry): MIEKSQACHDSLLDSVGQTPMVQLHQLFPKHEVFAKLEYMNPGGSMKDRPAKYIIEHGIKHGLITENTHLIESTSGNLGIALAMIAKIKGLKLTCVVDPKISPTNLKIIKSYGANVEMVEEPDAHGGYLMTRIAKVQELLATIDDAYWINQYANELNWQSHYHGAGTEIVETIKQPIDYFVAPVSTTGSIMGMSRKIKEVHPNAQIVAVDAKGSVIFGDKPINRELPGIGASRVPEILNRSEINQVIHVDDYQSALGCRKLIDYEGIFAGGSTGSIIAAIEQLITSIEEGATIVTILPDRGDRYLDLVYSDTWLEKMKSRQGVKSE

Turning to `O=C(O)CC(C(=O)O)c1ccccc1` (racemic) [compound 2, 2-phenylsuccinic acid], the Ki in data set [1] was found to be 124 ± 13 µM. This compound had an IC50 in data set [2] of 366 ± 37 µM.

For `N[C@@H](CCC(=O)O)C(=O)O` [L-glutamate], the “Ki” value in data set [3] amounted to 25750 ± 7930 µM. As for `O=C(O)CC(O)(CC(=O)O)C(=O)O` [citrate], the Ki in data set [1] amounted to 900 ± 200 µM. Besides, in data set [2], the IC50 is 800 ± 100 µM. The compound `O=C(O)/C=C(\C(=O)O)c1ccccc1` [compound 3, Z-2-phenylbut-2-enedioic acid] gave a Ki in data set [1] of 16 ± 2 µM. In data set [2], this compound returned an IC50 of 37 ± 3 µM. `O=C(O)CCC(=O)C(=O)O` [α-ketoglutarate] returned an IC50 in data set [2] of 2600 ± 200 µM. As to “SbnA (Staphylococcus aureus subsp. aureus str. Newman)”, in data set [4], the Km came to 27 ± 6 µM and the kcat/Km came out at 170000 M⁻¹ s⁻¹.

(Values after paper PMC12414870, “First‐in‐class inhibitors of SbnA reduce siderophore production in Staphylococcus aureus” (The Febs Journal, 2025).)
